Results published in PMC12752606, “METTL10‐Mediated PIAS3 Methylation Links Purine Metabolism to Gastric Cancer Progression” (Advanced Science, 2025).
Residues, ends and D or L forms follow the SMILES beside them. *: point of attachment. Cbz = O=C(OCc1ccccc1)*

Assays:
[1] = system: MITF levels in MKN45 cells; experiment: Immunoblotting of MITF in METTL10-knockdown cells treated with MG132; type: cell-based; conditions: MG132 5 µM for 5 hours
Experimental: (§1) Protein extraction from tissues or cells was performed by lysis buffer (20 mM Tris‐HCl (pH 7.5), 150 mM NaCl, 1 mM EDTA, 1 mM EGTA, 2.5 mM sodium pyrophosphate, 1 mM β‐glycerolphosphate, 1% Triton X‐100) supplemented with 1% phenylmethylsulfonyl fluoride (PMSF; Solarbio, P0100) and protease inhibitor cocktail (Apexbio, K1007) and lysed at 4 °C for 60 min, followed by centrifugation at 12000 g for 15 min at 4 °C. For Immunoblotting, the protein concentration was determined using the Pierce BCA Protein Assay Kit (Thermo Fisher Scientific, A55864). The protein samples were denatured by boiling in SDS‐PAGE loading buffer. For immunoprecipitation, antibodies were incubated with Dynabeads Protein G (Thermo, 10004D) at 4 °C for 4 h. The supernatant was then incubated with magnetic beads conjugated with antibodies or anti‐FLAG‐M2 magnetic beads (Sigma–Aldrich, M8823) at 4 °C overnight. Following incubation, the magnetic beads were washed three times with lysis buffer and then boiled in SDS‐PAGE loading buffer. The proteins were separated by sodium dodecyl sulfate polyacrylamide gel electrophoresis (SDS‐PAGE) with One‐Step PAGE Gel Fast Preparation Kit (Vazyme), and then transferred to the PVDF Membrane (Bio‐Rad). After blocking with a protein‐free rapid blocking buffer (Epizyme, PS108P) for 15 min, the membranes were incubated with primary antibodies at 4 °C overnight. […]

[2] = system: MITF protein levels in HA-PIAS3-overexpressing MKN45 cells; experiment: Immunoblotting of MITF in PIAS3-overexpressing cells treated with MG132; type: cell-based; conditions: MG132 5 µM for 5 h
Experimental: as §1

Question: Which results are given for `CC(C)C[C@@H](C=O)NC(=O)[C@H](CC(C)C)NC(=O)[C@H](CC(C)C)NC(=O)OCc1ccccc1` [MG132] (Cbz-Leu-Leu-Leu-aldehyde)?
Answer: Effect on decrease in MITF levels caused by knockdown of METTL10 [1]: completely eliminated the decrease in MITF levels; PIAS3-mediated degradation of MITF [2]: inhibited
